Test results: patent US12662489B2 (Sitryx Therapeutics Limited, priority 2023, dated 2026)

How the values were obtained:
[1] = target: T1, MTHFD2 recombinant human enzyme (Homo sapiens, UniProt P13995); assay: MTHFD2 inhibition assay (NAD(P)H-Glo luminescence); settings: for MTHFD1/MTHFD2 IC50 ratio: selectivity of MTHFD2 inhibition over MTHFD1, band
T1 sequence (P13995 36-350): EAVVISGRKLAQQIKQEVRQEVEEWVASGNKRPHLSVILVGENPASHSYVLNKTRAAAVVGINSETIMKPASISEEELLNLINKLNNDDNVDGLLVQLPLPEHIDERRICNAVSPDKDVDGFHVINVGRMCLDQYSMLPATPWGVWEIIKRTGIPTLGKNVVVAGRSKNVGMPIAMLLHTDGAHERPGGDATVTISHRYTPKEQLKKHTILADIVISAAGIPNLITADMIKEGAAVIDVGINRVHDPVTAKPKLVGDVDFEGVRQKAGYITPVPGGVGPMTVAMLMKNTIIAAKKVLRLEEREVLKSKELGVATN

[2] = target: T2, MTHFD1 recombinant human enzyme (Homo sapiens, UniProt P11586); assay: MTHFD1 inhibition assay (NAD(P)H-Glo luminescence); settings: MTHFD1 IC50, recombinant human enzyme 200 nM, NADP, band
T2 sequence (P11586 2-291 limits assumed): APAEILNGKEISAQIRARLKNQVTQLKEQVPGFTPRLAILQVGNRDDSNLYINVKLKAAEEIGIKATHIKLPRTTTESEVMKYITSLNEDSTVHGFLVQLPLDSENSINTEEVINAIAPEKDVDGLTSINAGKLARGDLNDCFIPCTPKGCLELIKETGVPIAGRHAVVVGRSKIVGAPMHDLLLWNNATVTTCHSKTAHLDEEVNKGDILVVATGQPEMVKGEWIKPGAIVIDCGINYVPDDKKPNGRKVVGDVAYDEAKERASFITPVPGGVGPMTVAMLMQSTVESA

| IC50 [1] | MTHFD1/MTHFD2 IC50 ratio [1] | IC50 [2] | SMILES |
| --- | --- | --- | --- |
| 1 to 10 nM | G (^ 3 to 9.0) | 1 to 10 nM | COC[C@H]1CN(c2cc(C)c3c4c(c(=O)oc3c2C)CN(C(=O)c2ccc(C(=O)NS(=O)(=O)N3CCCC3)c(N3CCCC3)c2)CC4)CCN1C [Example 96, (R)-4-(8-(3-(methoxymethyl)-4-methylpiperazin-1-yl)-7,10-dimethyl-5-oxo-1,3,4,5-tetrahydro-2H-chromeno[3,4-c]pyridine-3-carbonyl)-2-(pyrrolidin-1-yl)-N-(pyrrolidin-1-ylsulfonyl)benzamide] |
| 10 to 100 nM | G (^ 3 to 9.0) | 10 to 100 nM | COC[C@H]1CN(c2cc(C)c3c4c(c(=O)oc3c2C)CN(C(=O)c2cc(N3CCCC3)c(C(=O)NS(=O)(=O)C3(C)CC3)cc2F)CC4)CCN1C [Example 142, (R)-5-fluoro-4-(8-(3-(methoxymethyl)-4-methylpiperazin-1-yl)-7,10-dimethyl-5-oxo-1,3,4,5-tetrahydro-2H-chromeno[3,4-c]pyridine-3-carbonyl)-N-((1-methylcyclopropyl)sulfonyl)-2-(pyrrolidin-1-yl)benzamide] |
| 1 to 10 nM | J (>30) | 100 to 1000 nM | COC[C@H]1CN(c2cc(C)c3c4c(c(=O)oc3c2C)CN(C(=O)c2cc(Cl)c(C(=O)NS(=O)(=O)N(C)C)c(N3CC5CC5C3)c2)CC4)CCN1C (stereo partly drawn) [Example 34, 2-(3-azabicyclo[3.1.0]hexan-3-yl)-6-chloro-N-(N,N-dimethylsulfamoyl)-4-(8-((R)-3-(methoxymethyl)-4-methylpiperazin-1-yl)-7,10-dimethyl-5-oxo-1,3,4,5-tetrahydro-2H-chromeno[3,4-c]pyridine-3-carbonyl)benzamide] |

Further lines, the compound ahead of its results:

| SMILES | IC50 [1] | MTHFD1/MTHFD2 IC50 ratio [1] | IC50 [2] |
| --- | --- | --- | --- |
| COC[C@H]1CN(c2cc(C)c3c4c(c(=O)oc3c2C)CN(C(=O)c2ccc(C(=O)NS(=O)(=O)C3(C)CC3)c(N3CC5CC5C3)c2)CC4)CCN1C (stereo partly drawn) [Example 46, 2-(3-azabicyclo[3.1.0]hexan-3-yl)-4-(8-((R)-3-(methoxymethyl)-4-methylpiperazin-1-yl)-7,10-dimethyl-5-oxo-1,3,4,5-tetrahydro-2H-chromeno[3,4-c]pyridine-3-carbonyl)-N-((1-methylcyclopropyl)sulfonyl)benzamide] | 1 to 10 nM | H (>9.0 to 30) | 10 to 100 nM |
| CCOc1cc(C(=O)N2CCc3c(c(=O)oc4c(C)c(N5CCN(C)[C@@H](COC)C5)cc(C)c34)C2)ccc1C(=O)NS(=O)(=O)N1C2CCC1CC2 [Example 227, (R)-N-((7-azabicyclo[2.2.1]heptan-7-yl)sulfonyl)-2-ethoxy-4-(8-(3-(methoxymethyl)-4-methylpiperazin-1-yl)-7,10-dimethyl-5-oxo-1,3,4,5-tetrahydro-2H-chromeno[3,4-c]pyridine-3-carbonyl)benzamide] | 1 to 10 nM | H (>9.0 to 30) | 100 to 1000 nM |
| COC[C@H]1CN(c2cc(C)c3c4c(c(=O)oc3c2C)CN(C(=O)c2cc(OC3CCCC3)c(C(=O)NS(=O)(=O)N3CCCC3)cc2F)CC4)CCN1C [Example 111, (R)-2-(cyclopentyloxy)-5-fluoro-4-(8-(3-(methoxymethyl)-4-methylpiperazin-1-yl)-7,10-dimethyl-5-oxo-1,3,4,5-tetrahydro-2H-chromeno[3,4-c]pyridine-3-carbonyl)-N-(pyrrolidin-1-ylsulfonyl)benzamide] | 10 to 100 nM | F (<3) | 10 to 100 nM |
| COC[C@H]1CN(c2ccc3c4c(c(=O)oc3c2C)CN(C(=O)c2cc(Cl)c(C(=O)NS(=O)(=O)N(C)C)c(N3CC5CC5C3)c2)CC4)CCN1C (stereo partly drawn) [Example 33, 2-(3-azabicyclo[3.1.0]hexan-3-yl)-6-chloro-N-(N,N-dimethylsulfamoyl)-4-(8-((R)-3-(methoxymethyl)-4-methylpiperazin-1-yl)-7-methyl-5-oxo-1,3,4,5-tetrahydro-2H-chromeno[3,4-c]pyridine-3-carbonyl)benzamide] | 10 to 100 nM | H (>9.0 to 30) | 100 to 1000 nM |
